Data reported in ChEMBL document CHEMBL3991601, “The target landscape of clinical kinase drugs” (Science, 2017).
Calls of active or inactive are those of the source. Rule as the data show it, for most assays here: actives have a measured Kd and inactives only a lower limit.

Experiments:
[1] = target: T1, Ferrochelatase, mitochondrial (Homo sapiens, UniProt P22830)
T1 sequence (P22830 whole entry): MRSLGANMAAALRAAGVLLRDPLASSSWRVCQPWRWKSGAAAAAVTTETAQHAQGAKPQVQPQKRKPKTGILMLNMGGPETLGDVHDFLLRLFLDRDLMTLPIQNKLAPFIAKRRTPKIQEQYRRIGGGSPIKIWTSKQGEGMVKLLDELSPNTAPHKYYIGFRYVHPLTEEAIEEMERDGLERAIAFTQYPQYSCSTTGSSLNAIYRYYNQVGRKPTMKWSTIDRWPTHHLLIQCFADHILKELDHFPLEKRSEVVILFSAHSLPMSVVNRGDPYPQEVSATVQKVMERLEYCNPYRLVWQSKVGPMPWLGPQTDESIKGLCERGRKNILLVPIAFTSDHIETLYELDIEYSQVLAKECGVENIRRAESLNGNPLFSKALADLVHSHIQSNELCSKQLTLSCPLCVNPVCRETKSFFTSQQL

[2] = target: T2, Phosphatidylinositol 5-phosphate 4-kinase type-2 gamma (Homo sapiens, UniProt Q8TBX8)
T2 sequence (Q8TBX8 whole entry): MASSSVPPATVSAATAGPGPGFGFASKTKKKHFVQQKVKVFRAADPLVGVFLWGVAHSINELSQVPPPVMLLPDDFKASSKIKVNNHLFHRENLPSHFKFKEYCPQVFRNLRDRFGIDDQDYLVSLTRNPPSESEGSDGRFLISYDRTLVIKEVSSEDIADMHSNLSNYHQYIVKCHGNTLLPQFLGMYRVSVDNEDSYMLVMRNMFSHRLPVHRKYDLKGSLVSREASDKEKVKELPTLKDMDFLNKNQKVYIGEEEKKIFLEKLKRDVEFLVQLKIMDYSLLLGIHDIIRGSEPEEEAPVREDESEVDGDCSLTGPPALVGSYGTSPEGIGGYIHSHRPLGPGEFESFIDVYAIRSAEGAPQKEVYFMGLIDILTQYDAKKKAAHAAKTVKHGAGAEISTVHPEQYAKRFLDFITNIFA

Rab-like protein 3 = target: T3, Rab-like protein 3 (Homo sapiens, UniProt Q5HYI8)
T3 sequence (Q5HYI8 whole entry): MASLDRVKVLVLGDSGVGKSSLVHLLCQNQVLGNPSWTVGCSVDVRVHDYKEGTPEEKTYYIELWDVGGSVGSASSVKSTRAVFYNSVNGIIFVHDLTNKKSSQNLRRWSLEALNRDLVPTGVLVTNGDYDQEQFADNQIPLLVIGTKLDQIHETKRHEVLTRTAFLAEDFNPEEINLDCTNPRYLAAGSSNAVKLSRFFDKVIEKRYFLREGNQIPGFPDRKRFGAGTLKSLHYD

Ephrin type-B receptor 6 = target: T4, Ephrin type-B receptor 6 (Homo sapiens, UniProt O15197)
T4 sequence (O15197 whole entry): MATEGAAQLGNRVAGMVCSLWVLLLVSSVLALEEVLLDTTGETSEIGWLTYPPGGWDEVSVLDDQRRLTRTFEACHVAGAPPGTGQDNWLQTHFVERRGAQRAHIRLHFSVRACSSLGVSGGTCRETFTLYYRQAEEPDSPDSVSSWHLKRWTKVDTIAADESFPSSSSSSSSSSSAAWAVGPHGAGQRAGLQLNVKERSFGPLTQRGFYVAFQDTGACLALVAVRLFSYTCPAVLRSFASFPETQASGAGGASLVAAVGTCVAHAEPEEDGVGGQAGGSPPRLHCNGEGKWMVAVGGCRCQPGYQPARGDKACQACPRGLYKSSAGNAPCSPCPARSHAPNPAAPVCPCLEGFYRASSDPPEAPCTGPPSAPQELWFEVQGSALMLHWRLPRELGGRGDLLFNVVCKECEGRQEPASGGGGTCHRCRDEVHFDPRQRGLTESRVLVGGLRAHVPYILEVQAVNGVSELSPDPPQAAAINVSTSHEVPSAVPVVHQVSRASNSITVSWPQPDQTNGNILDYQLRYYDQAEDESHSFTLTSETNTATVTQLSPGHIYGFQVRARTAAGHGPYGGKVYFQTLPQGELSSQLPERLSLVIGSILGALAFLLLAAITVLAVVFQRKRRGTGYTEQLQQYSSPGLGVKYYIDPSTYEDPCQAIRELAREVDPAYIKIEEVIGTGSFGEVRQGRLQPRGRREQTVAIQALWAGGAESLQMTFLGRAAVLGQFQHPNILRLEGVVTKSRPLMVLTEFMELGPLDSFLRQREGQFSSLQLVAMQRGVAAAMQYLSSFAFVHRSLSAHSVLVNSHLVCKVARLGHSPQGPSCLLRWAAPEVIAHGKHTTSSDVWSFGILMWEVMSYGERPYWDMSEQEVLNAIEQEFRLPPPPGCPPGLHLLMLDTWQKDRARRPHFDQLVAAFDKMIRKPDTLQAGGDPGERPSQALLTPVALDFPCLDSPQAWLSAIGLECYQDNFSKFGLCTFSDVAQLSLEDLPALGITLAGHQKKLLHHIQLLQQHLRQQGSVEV

[3] = target: Serine/threonine-protein kinase 10 (Homo sapiens, UniProt O94804)
Chain of Serine/threonine-protein kinase 10 (O94804 whole entry, canonical isoform): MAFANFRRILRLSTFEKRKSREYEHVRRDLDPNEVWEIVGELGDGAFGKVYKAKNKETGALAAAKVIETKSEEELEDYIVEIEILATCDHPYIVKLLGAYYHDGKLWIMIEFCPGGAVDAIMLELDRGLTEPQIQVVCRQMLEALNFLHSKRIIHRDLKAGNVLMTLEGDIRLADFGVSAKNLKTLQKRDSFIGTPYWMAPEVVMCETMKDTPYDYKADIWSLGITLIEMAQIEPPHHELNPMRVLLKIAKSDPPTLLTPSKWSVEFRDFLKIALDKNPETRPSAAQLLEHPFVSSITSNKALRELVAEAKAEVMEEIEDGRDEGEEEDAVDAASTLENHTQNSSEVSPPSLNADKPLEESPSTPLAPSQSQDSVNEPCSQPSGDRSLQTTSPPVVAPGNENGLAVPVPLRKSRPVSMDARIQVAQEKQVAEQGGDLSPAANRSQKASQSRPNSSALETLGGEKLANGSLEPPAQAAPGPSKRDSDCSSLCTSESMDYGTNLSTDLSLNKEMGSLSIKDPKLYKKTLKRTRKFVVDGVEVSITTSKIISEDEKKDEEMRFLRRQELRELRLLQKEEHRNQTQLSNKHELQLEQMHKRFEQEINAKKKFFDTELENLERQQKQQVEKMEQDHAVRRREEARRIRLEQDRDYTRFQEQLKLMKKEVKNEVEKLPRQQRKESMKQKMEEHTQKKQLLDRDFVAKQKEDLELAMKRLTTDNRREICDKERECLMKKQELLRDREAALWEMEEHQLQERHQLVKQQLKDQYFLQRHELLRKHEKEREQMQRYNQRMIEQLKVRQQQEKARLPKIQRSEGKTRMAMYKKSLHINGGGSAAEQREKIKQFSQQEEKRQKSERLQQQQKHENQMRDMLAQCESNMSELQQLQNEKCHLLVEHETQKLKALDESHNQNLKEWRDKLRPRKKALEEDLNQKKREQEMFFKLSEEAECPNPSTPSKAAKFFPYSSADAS

[4] = target: Casein kinase I isoform gamma-1 (Homo sapiens, UniProt Q9HCP0)
Chain of Casein kinase I isoform gamma-1 (Q9HCP0 whole entry, canonical isoform): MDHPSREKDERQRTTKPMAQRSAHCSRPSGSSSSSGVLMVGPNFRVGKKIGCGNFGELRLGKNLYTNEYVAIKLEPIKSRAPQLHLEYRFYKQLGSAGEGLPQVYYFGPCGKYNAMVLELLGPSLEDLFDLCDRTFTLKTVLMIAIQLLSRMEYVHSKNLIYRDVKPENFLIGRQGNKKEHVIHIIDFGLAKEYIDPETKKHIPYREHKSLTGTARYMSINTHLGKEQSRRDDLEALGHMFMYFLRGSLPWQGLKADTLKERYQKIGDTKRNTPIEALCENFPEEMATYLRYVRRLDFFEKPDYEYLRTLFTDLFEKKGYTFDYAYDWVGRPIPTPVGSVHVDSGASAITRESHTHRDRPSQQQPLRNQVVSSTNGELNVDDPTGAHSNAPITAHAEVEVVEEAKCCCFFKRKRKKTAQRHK
Also: in the data inactive means no Kd found up to 30 µM.

COc1ccc2c(OCc3nnc4ccc(-c5ccccc5)nn34)ccnc2c1 [AMG-208]
Kd [1]: > 30 µM (inactive) | Kd [2]: > 30 µM (inactive) | Kd (Rab-like protein 3): > 30 µM (inactive) | Kd (Ephrin type-B receptor 6): > 30 µM (inactive) | Kd [3]: > 30 µM (inactive) | Kd [4]: > 30 µM (inactive)

CCN(CCCOc1ccc2c(Nc3cc(CC(=O)Nc4cccc(F)c4)n[nH]3)ncnc2c1)CCOP(=O)(O)O [BARASERTIB]
Kd [1]: > 30 µM (inactive) | Kd [2]: > 30 µM (inactive) | Kd (Rab-like protein 3): > 30 µM (inactive) | Kd (Ephrin type-B receptor 6): > 30 µM (inactive) | Kd [3]: > 30 µM (inactive) | Kd [4]: > 30 µM (inactive)

CCN1CCN(Cc2ccc(Nc3ncc(F)c(-c4cc(F)c5nc(C)n(C(C)C)c5c4)n3)nc2)CC1 [ABEMACICLIB]
Kd [1]: > 30 µM (inactive) | Kd [2]: > 30 µM (inactive) | Kd (Rab-like protein 3): > 30 µM (inactive) | Kd (Ephrin type-B receptor 6): > 30 µM (inactive) | Kd [3]: 2.47 µM (active) | Kd [4]: > 30 µM (inactive)

CC1(COc2ccc3c(c2)ncn3-c2ccc3cccc(N4CCC(N)CC4)c3n2)COC1 [CRENOLANIB]
Kd [1]: 7.35 µM (active) | Kd [2]: > 30 µM (inactive) | Kd (Rab-like protein 3): > 30 µM (inactive) | Kd (Ephrin type-B receptor 6): > 30 µM (inactive) | Kd [3]: 3.43 µM (active) | Kd [4]: > 30 µM (inactive)

COc1cccc2cc(-c3nc([C@H]4CC[C@H](C(=O)O)CC4)n4ncnc(N)c34)[nH]c12 [OSI-027]
Kd [1]: 12.6 µM (active) | Kd [2]: 4.97 µM | Kd (Rab-like protein 3): > 30 µM (inactive) | Kd (Ephrin type-B receptor 6): > 30 µM (inactive) | Kd [3]: > 30 µM (inactive) | Kd [4]: > 30 µM (inactive)

O=C(NC[C@H](O)CO)c1ccncc1Nc1ccc(I)cc1F [PIMASERTIB]
Kd [1]: > 30 µM (inactive) | Kd [2]: > 30 µM (inactive) | Kd (Rab-like protein 3): > 30 µM (inactive) | Kd (Ephrin type-B receptor 6): > 30 µM (inactive) | Kd [3]: > 30 µM (inactive) | Kd [4]: > 30 µM (inactive)

CN1CCN(c2nc(C3=C(c4c[nH]c5ccccc45)C(=O)NC3=O)c3ccccc3n2)CC1 [SOTRASTAURIN]
Kd [1]: > 30 µM (inactive) | Kd [2]: > 30 µM (inactive) | Kd (Rab-like protein 3): > 30 µM (inactive) | Kd (Ephrin type-B receptor 6): > 30 µM (inactive) | Kd [3]: > 30 µM (inactive) | Kd [4]: > 30 µM (inactive)

c1cc(OCCN2CCCCC2)cc(-c2n[nH]c3ccc(-c4nc[nH]n4)cc23)c1 [CC-401]
Kd [1]: 32.4 µM (active) | Kd [2]: > 30 µM (inactive) | Kd (Rab-like protein 3): > 30 µM (inactive) | Kd (Ephrin type-B receptor 6): > 30 µM (inactive) | Kd [3]: > 30 µM (inactive) | Kd [4]: 0.282 µM (active)

O=c1[nH]c([C@@H]2CCCN2)nc2c1oc1ccc(Cl)cc12
Kd [1]: > 30 µM (inactive) | Kd [2]: > 30 µM (inactive) | Kd (Rab-like protein 3): > 30 µM (inactive) | Kd (Ephrin type-B receptor 6): > 30 µM (inactive) | Kd [3]: > 30 µM (inactive) | Kd [4]: > 30 µM (inactive)

O=S(=O)(c1cccc2c(O)nccc12)N1CCCNCC1 [HYDROXYFASUDIL]
Kd [1]: > 30 µM (inactive) | Kd [2]: > 30 µM (inactive) | Kd (Rab-like protein 3): > 30 µM (inactive) | Kd (Ephrin type-B receptor 6): > 30 µM (inactive) | Kd [3]: > 30 µM (inactive) | Kd [4]: > 30 µM (inactive)
